# Like-named read-outs stand apart in the source and are kept apart here.
# Key:
# Assay in all cases: MIC of compounds alone and combined with antibacterials, broth microdilution (CLSI)
# Assay type in all cases: cell-based
# [1] = test system: Citrobacter freundii (CFR) isolates; settings: Citrobacter freundii
# In short: (§1)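 Broth microdilution in cation-adjusted Mueller-Hinton broth, inoculum 5.10^5 CFU/mL, 16-20 h at 35° C in ambient air, on genotyped isolates. Compound MIC, alone or with an antibacterial, taken visually as lowest concentration preventing growth; antibacterial MIC determined at each compound concentration.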
# [2] = test system: Citrobacter koseri (CKR) isolates; settings: Citrobacter koseri
# In short: as §1
# [3] = test system: Enterobacter aerogenes (EAE) isolates; settings: Klebsiella aerogenes
# In short: as §1
# [4] = test system: Escherichia coli (ECO) isolates; settings: Escherichia coli
# In short: as §1
# [5] = test system: Klebsiella oxytoca (KOX) isolates; settings: Klebsiella oxytoca
# In short: as §1
# [6] = test system: Serratia marcescens (SMA) isolates; settings: Serratia marcescens
# In short: as §1
# [7] = strain CFR UFR254, genotype VEB-1b, OXA-48, qnrA, read-out: MIC
# [8] = strain EAE 49469, genotype AmpC, read-out: MIC
# [9] = strain ECO 4133, genotype TEM-30, OXA-1, read-out: MIC
# [10] = strain ECO 5302, genotype TEM-1, OXA-1, read-out: MIC
# [11] = strain ECO 131119, genotype TEM-1, OXA-48, read-out: MIC
# [12] = strain ECO RGN238, genotype OXA-1, read-out: MIC
# [13] = strain ECO UFR86, genotype ompC-, ompF-, read-out: MIC
# [14] = strain ECO UFR211, genotype TEM-24, read-out: MIC
# [15] = strain SMA UFR137, genotype SME-1, read-out: MIC
# [16] = strain SMA UFR138, genotype SME-1, read-out: MIC
# [17] = strain SMA UFR139, genotype SME-2, read-out: MIC
# [18] = strain SMA UFR239, genotype ESAC, read-out: MIC
structure (smiles),measurement,setting,value
"C=CC1=C(C(=O)O)N2C(=O)[C@@H](NC(=O)/C(=N\O)c3csc(N)n3)[C@H]2SC1 [CDR, Cefdinir]",MIC,"[1]; strain CFR UFR10, genotype OXA-48",> 256 mg/L
same,MIC,"[1]; strain CFR UFR11, genotype TEM-1, OXA-1, OXA-48",> 256 mg/L
same,MIC,"[1]; strain CFR UFR83, genotype TEM-3, AmpC",> 256 mg/L
same,MIC,"[1]; strain CFR UFR146, genotype TEM-1, KPC-2, read-out: MIC",256 mg/L
same,MIC,"[1]; strain CFR UFR248, genotype CTX-M-15",> 256 mg/L
same,MIC,"[1]; strain CFR UFR249, genotype TEM-1, CTX-M-15",> 256 mg/L
same,MIC,"[1]; strain CFR UFR250, genotype TEM-1, SHV-28, CTX-M-15",> 256 mg/L
same,MIC,"[1]; strain CFR UFR253, genotype TEM-1, SHV-12, OXA-48",> 256 mg/L
same,MIC,[1]; [7],256 mg/L
same,MIC,[2],> 256 mg/L
same,MIC,[3],> 256 mg/L
same,MIC,[3]; [8],> 128 mg/L
same,MIC,"[3]; strain EAE UFR202, genotype TEM-24, read-out: MIC",256 mg/L
same,MIC,"[3]; strain EAE UFR213, genotype TEM-24, read-out: MIC",256 mg/L
same,MIC,[4]; [9],0.5 mg/L
same,MIC,[4]; [10],1 mg/L
same,MIC,[4]; [11],256 mg/L
same,MIC,"[4]; strain ECO 180070, genotype TEM-1, CTX-M-15",> 256 mg/L
same,MIC,"[4]; strain ECO 190314, genotype CTX-M-1",> 256 mg/L
same,MIC,"[4]; strain ECO 190317, genotype TEM-1, SHV-12, CTX-M-15, OXA-1",> 256 mg/L
same,MIC,"[4]; strain ECO 190457, genotype CTX-M-15, OXA-1",> 256 mg/L
same,MIC,"[4]; strain ECO 190549, genotype CTX-M-1, read-out: MIC",256 mg/L
same,MIC,"[4]; strain ECO 200159, genotype TEM-1, CTX-M-14, read-out: MIC",256 mg/L
same,MIC,"[4]; strain ECO 200259, genotype CTX-M-14, read-out: MIC",256 mg/L
same,MIC,"[4]; strain ECO 200344, genotype CTX-M-1",> 256 mg/L
same,MIC,"[4]; strain ECO 260096, genotype CTX-M-132",> 256 mg/L
same,MIC,"[4]; strain ECO 260304, genotype CTX-M-15, read-out: MIC",256 mg/L
same,MIC,"[4]; strain ECO 260508, genotype TEM-1, CTX-M-15, OXA-1",> 256 mg/L
same,MIC,[4]; [12],0.5 mg/L
same,MIC,"[4]; strain ECO UFR15, genotype TEM-1, OXA-48",> 256 mg/L
same,MIC,"[4]; strain ECO UFR16, genotype TEM-1, CTX-M-15, OXA-1, OXA-48",> 256 mg/L
same,MIC,"[4]; strain ECO UFR17, genotype TEM-1, CTX-M-15, CMY-2, OXA-1, OXA-181",> 256 mg/L
same,MIC,"[4]; strain ECO UFR18, genotype CTX-M-15, OXA-204",> 256 mg/L
same,MIC,"[4]; strain ECO UFR19, genotype CTX-M-15, CMY-2, OXA-1, OXA-204",> 256 mg/L
same,MIC,"[4]; strain ECO UFR20, genotype SHV-1, CTX-M-15, OXA-1, OXA-232",> 256 mg/L
same,MIC,"[4]; strain ECO UFR61O, genotype TEM-1, KPC-2",> 256 mg/L
same,MIC,"[4]; strain ECO UFR62, genotype TEM-1, CTX-M-9, KPC-2",> 256 mg/L
same,MIC,"[4]; strain ECO UFR74, genotype SHV-1, DHA-1",> 256 mg/L
same,MIC,[4]; [13],2 mg/L
same,MIC,"[4]; strain ECO UFR174, genotype TEM-1, KPC-2, OXA-1",> 256 mg/L
same,MIC,"[4]; strain ECO UFR175, genotype TEM-1, KPC-2, OXA-9",> 256 mg/L
same,MIC,"[4]; strain ECO UFR176, genotype KPC-3, OXA-9*",> 256 mg/L
same,MIC,"[4]; strain ECO UFR184, genotype CTX-M-15, CMY-4, OXA-1, OXA-204",> 256 mg/L
same,MIC,"[4]; strain ECO UFR185, genotype OXA-48",> 256 mg/L
same,MIC,"[4]; strain ECO UFR186, genotype TEM-1, CTX-M-14, OXA-48",> 256 mg/L
same,MIC,"[4]; strain ECO UFR187, genotype CTX-M-15, OXA-48",> 256 mg/L
same,MIC,"[4]; strain ECO UFR189, genotype TEM-1, CTX-M-15, OXA-48",> 256 mg/L
same,MIC,"[4]; strain ECO UFR190, genotype CTX-M-24, OXA-48",> 256 mg/L
same,MIC,"[4]; strain ECO UFR191, genotype TEM-1, CTX-M-24, OXA-48",> 256 mg/L
same,MIC,"[4]; strain ECO UFR207, genotype CTX-M-15",> 256 mg/L
same,MIC,"[4]; strain ECO UFR208, genotype SHV-12",> 256 mg/L
same,MIC,"[4]; strain ECO UFR209, genotype TEM-1, CTX-M-15",> 256 mg/L
same,MIC,"[4]; strain ECO UFR210, genotype SHV-12",> 256 mg/L
same,MIC,[4]; [14],32 mg/L
same,MIC,"[4]; strain ECO UFR212, genotype CMY-2",> 256 mg/L
same,MIC,"[4]; strain ECO UFR218, genotype TEM-1, SHV-1, CTX-M-15",> 256 mg/L
same,MIC,[5],> 256 mg/L
same,MIC,[6],> 256 mg/L
same,MIC,"[6]; strain SMA UFR134, genotype TEM-1, BES-1, read-out: MIC",256 mg/L
same,MIC,[6]; [15],4 mg/L
same,MIC,[6]; [16],8 mg/L
same,MIC,[6]; [17],64 mg/L
same,MIC,[6]; [18],128 mg/L
"COCC1=C(C(=O)O)N2C(=O)[C@@H](NC(=O)/C(=N\OC)c3csc(N)n3)[C@H]2SC1 [POD, Cefpodoxime]",MIC,"[1]; strain CFR UFR253, genotype TEM-1, SHV-12, OXA-48, read-out: MIC",32 mg/L
same,MIC,[1]; [7],32 mg/L
same,MIC,"[2]; strain CKO ROU, genotype TEM-1, SHV-12, CTX-M-15, OXA-1, OXA-48, read-out: MIC",4 mg/L
same,MIC,"[2]; strain CKO UFR150, genotype TEM-1, OXA-48, read-out: MIC",16 mg/L
same,MIC,[3]; [8],> 128 mg/L
same,MIC,[4]; [9],2 mg/L
same,MIC,[4]; [10],4 mg/L
same,MIC,[4]; [11],1 mg/L
same,MIC,"[4]; strain ECO 190317, genotype TEM-1, SHV-12, CTX-M-15, OXA-1, read-out: MIC",> 512 mg/L
same,MIC,[4]; [12],2 mg/L
same,MIC,"[4]; strain ECO UFR15, genotype TEM-1, OXA-48, read-out: MIC",2 mg/L
same,MIC,[4]; [13],4 mg/L
same,MIC,[4]; [14],32 mg/L
same,MIC,"[5]; strain KOX UFR223, genotype SHV-11, OXA-48, read-out: MIC",0.5 mg/L
same,MIC,"[6]; strain SMA UFR30, genotype OXA-405, read-out: MIC",32 mg/L
same,MIC,[6]; [15],1 mg/L
same,MIC,[6]; [16],2 mg/L
same,MIC,[6]; [17],8 mg/L
same,MIC,"[6]; strain SMA UFR141, genotype OXA-48, read-out: MIC",8 mg/L
same,MIC,"[6]; strain SMA UFR142, genotype OXA-48, read-out: MIC",8 mg/L
same,MIC,"[6]; strain SMA UFR238, genotype OXA-48, read-out: MIC",8 mg/L
same,MIC,[6]; [18],16 mg/L

# Reference: US20200017495A1, “NOVEL HETEROCYCLIC COMPOUNDS AND THEIR USE IN PREVENTING OR TREATING BACTERIAL INFECTIONS” (priority 2017, published 2020)
